Assay results published in patent US5149631A, “Compound marked with tritium, its preparation and its use in the location of nuclear receptors of retinoids” (Centre International de Recherches Dermatologiques Galderma …, priority 1989, dated 1992).

Assays:
[1] = test system: retinoic acid nuclear receptors (RARs); assay: Fixing on nuclear receptors RARs in nucleosol of F9 cells, analysed by HPSEC; format: binding, murin; conditions: for molecules of ligand fixed to the RARs per cell (HPSEC peak surface standardized to number of cells): F9 cells, 20 nM tritiated ligand
Protocol: Cultures of F9 cells of murin embryonic carcinoma (normally four 90 mm dishes containing in total 4-7×10^7 cells per incubation condition) were washed once with pBS (saline phosphate buffer) and incubated for 3 hours in a medium, without serum, supplemented with the marked retinoic homolog (to verify the specifity). The cells were then detached with a trypsin-EDTA mixture and numbered with a Burker hemocytometer. […] 50 μl of marked extract were injected on a 9×250 mm GF 250 column (Dupont de Nemours). The elution was carried out in a buffer 0.3M KH2 PO4, pH 7.8 at a rate of 1 ml/min. The protein content was followed by measuring the optical density at 280 nm. 28 fractions of 0.3 ml each were collected and counted in Picofluor (Packard) scintillating agent. For each retinoid concentration, the number of bonded molecules was determined using the surface of the radioactivity peak and the calculated concentration of demisaturation (C50). The molecular weight calibration of the column was carried out using human albumin (67 kDa), ovalbumin (45 kDa) and myoglobin (16.8 kDa). The dose-response curves and the competition curves were analyzed on a computer through nonlinear regression using the various forms of the Clark equation.

[2] = molecular target: T1, CRABP (cellular retinoic acid binding protein) (Rattus norvegicus, UniProt P62966); assay: Direct fixing on CRABP binding protein in rat testicle cytosol, Sephadex G25 separation
T1 construct: rat testicle cytosol containing CRABP; from tissue; host or cells: rat testicle homogenate / cytosol
Protocol: The difference ( -- ) represents the specific bond.
The total fixing non-specific+specific ( .circle.-- .circle.) is obtained by incubation of increasing concentration (up to a maximum of […]) of the claimed compound with a constant quantity (0.3 ml) of a rat testicle homogenate (CRABP-rich organ). The non-specific fixing of the tritiated compound is determined in parallel, by measuring the fixing with increasing concentrations of the radioactive ligand in the presence of a large excess (1 μm) of cold homolog ligand (.quadrature.--.quadrature.). An incubation time of two hours is necessary for the establishment of balanced conditions.
The elution is done directly in scintillation tubes and the radioactivity is measured by counting.
The difference between the total fixing curve ( .circle.-- .circle.) and non-specific fixing (.quadrature.--.quadrature.) gives the specific fixing curve ( -- ). Analysis of this curve provides the dissociation constant at equilibrium (Kd) which is the concentration of the product required for 50% saturation of CRABP. This constant is a measurement of the affinity of the ligand for its bonding protein, Kd being inversely proportional to affinity (the smaller the Kd, the greater the affinity).

T1 sequence (P62966 whole entry): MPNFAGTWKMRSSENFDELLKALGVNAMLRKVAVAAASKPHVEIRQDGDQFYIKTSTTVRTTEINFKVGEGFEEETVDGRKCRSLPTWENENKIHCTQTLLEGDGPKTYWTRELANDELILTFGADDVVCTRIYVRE

| SMILES | specificity of fixing on RARs (about 45 kDa radioactivity peak) ([1]; F9 cells incubated with 20 nM tritiated ligand, co-incubation with an excess of 1000 times of cold compound I) | molecules of ligand fixed to the RARs per cell (HPSEC peak surface standardized to number of cells) [1] | specific fixing on CRABP ([2]; rat testicle homogenate, increasing concentrations of tritiated ligand, with or without 1 μm cold homolog ligand, two hours incubation) | fixing on RARs in the presence of excess cold ligand ([1]; F9 cells incubated with 20 nM tritiated retinoic acid, excess of 100 times of cold retinoic acid) | nature of the specific fixing on CRABP ([2]; rat testicle cytosol) | non-specific fixing as share of the total fixing ([2]; rat testicle cytosol, in the range of concentrations employed) |
| --- | --- | --- | --- | --- | --- | --- |
| [3H]c1cc(-c2ccc3cc(C(=O)O)ccc3c2[3H])cc(C23CC4CC(CC(C4)C2)C3)c1OC [Example 1, 6-[3-(1-adamantyl)-4-methoxyphenyl]-2-naphthoic acid marked with tritium] | specific | approximately 4,000 molecules per cell | no specific fixing |  |  |  |
| CC1=C(/C=C/C(C)=C/C=C/C(C)=C/C(=O)O)C(C)(C)CCC1 [retinoic acid] |  | approximately 4,000 molecules per cell |  | inhibited | saturable and reversible | less than 20% |
